Data set [1] relates to HCV replicon RNA (GenBank Accession No. AJ242654). In words: HCV Replicon Assay (replicon RNA reduction and/or Fluc reporter signal). It counts as cell-based, Hepatitis C virus. The note with it: Hepatitis C virus, 72 h, replicon-containing cells cultured with test compound for up to 3 days. In a few lines:
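Bicistronic replicon-containing cells cultured with compound for up to 3 days, with interferon as positive control. Inhibition quantified by replicon RNA reduction and/or Fluc reporter signal; IC50 values generally derived from replicon RNA reduction.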
A general note: A replicon is a self-replicating genome or part of one, used to study replication in cells.

Bounds are passed on as bounds.

This passage reports IC50 and melting point results from patent US9593108B2, “Compounds and methods for antiviral treatment” (PTC Therapeutics, Inc., priority 2009, dated 2017).

On to `Cc1cnc2c(c1)c(C#N)c(-c1ccc(S(=O)(=O)N[C@@H](C)C(F)(F)F)cn1)n2-c1cc(F)cc(F)c1` [Cpd 506, 6-[3-cyano-1-(3,5-difluorophenyl)-5-methyl-1H-pyrrolo[2,3-b]pyridin-2-yl]-N-[(2S)-1,1,1-trifluoropropan-2-yl]pyridine-3-sulfonamide], for which the melting point is 260 to 262 °C. For the same molecule, in data set [1], the IC50 is less than 500 nM.
Molecule `Cc1cnc2c(c1)c(C#N)c(-c1ccc(S(=O)(=O)N[C@@H](C)C(F)(F)F)cn1)n2-c1cscn1` [Cpd 507, 6-[3-cyano-5-methyl-1-(1,3-thiazol-4-yl)-1H-pyrrolo[2,3-b]pyridin-2-yl]-N-[(2S)-1,1,1-trifluoropropan-2-yl]pyridine-3-sulfonamide] yielded a melting point of 186 to 188 °C. Further, in data set [1], the IC50 was less than 500 nM.
In the same order, the values of `Cc1cnc2c(c1)c(C#N)c(-c1ccc(S(=O)(=O)N[C@@H](C)C(F)(F)F)cn1)n2-c1cc(C#N)ncn1` [Cpd 508, 6-[3-cyano-1-(6-cyanopyrimidin-4-yl)-5-methyl-1H-pyrrolo[2,3-b]pyridin-2-yl]-N-[(2S)-1,1,1-trifluoropropan-2-yl]pyridine-3-sulfonamide] are 120 to 122 °C and less than 500 nM.
`CCc1cnc2c(c1)c(C#N)c(-c1ccc(S(=O)(=O)N[C@@H](C)C(F)(F)F)cn1)n2-c1cccs1` [Cpd 509, 6-[3-cyano-5-ethyl-1-(thiophen-2-yl)-1H-pyrrolo[2,3-b]pyridin-2-yl]-N-[(2S)-1,1,1-trifluoropropan-2-yl]pyridine-3-sulfonamide]: the melting point is 169 to 171 °C. The IC50 in data set [1] was less than 500 nM.
The like results for `CCc1cnc2c(c1)c(C#N)c(-c1ccc(S(=O)(=O)N[C@@H](C)C(F)(F)F)cn1)n2-c1ccc(F)cc1` [Cpd 510, 6-[3-cyano-5-ethyl-1-(4-fluorophenyl)-1H-pyrrolo[2,3-b]pyridin-2-yl]-N-[(2S)-1,1,1-trifluoropropan-2-yl]pyridine-3-sulfonamide] were, in that order, 212 to 214 °C and less than 500 nM.
In the same order, the values of `CCc1cnc2c(c1)c(C#N)c(-c1ccc(S(=O)(=O)N[C@@H](C)C(F)(F)F)cn1)n2-c1cccc(F)c1` [Cpd 511, 6-[3-cyano-5-ethyl-1-(3-fluorophenyl)-1H-pyrrolo[2,3-b]pyridin-2-yl]-N-[(2S)-1,1,1-trifluoropropan-2-yl]pyridine-3-sulfonamide] are 195 to 197 °C and less than 500 nM.
The like results for `CCc1cnc2c(c1)c(C#N)c(-c1ccc(S(=O)(=O)N[C@@H](C)C(F)(F)F)cn1)n2-c1nccs1` [Cpd 512, 6-[3-cyano-5-ethyl-1-(1,3-thiazol-2-yl)-1H-pyrrolo[2,3-b]pyridin-2-yl]-N-[(2S)-1,1,1-trifluoropropan-2-yl]pyridine-3-sulfonamide] were, in that order, 229 to 231 °C and less than 500 nM.
Consider `[2H]C(C)(C)NS(=O)(=O)c1ccc(-c2c(C#N)c3cc(C(F)(F)F)cnc3n2C2CCC2)nc1` [Cpd 513, 6-[3-cyano-1-cyclobutyl-5-(trifluoromethyl)-1H-pyrrolo[2,3-b]pyridin-2-yl]-N-[(2-deuterium)propan-2-yl]pyridine-3-sulfonamide], for which the melting point lay in the range of 191 to 193 °C. In addition, in data set [1], the IC50 is less than 500 nM.
As to `Cc1cnc2c(c1)c(C#N)c(-c1ccc(S(=O)(=O)N[C@@H](C)C(F)(F)F)cn1)n2-c1nc(C#N)cs1` [Cpd 514, 6-[3-cyano-1-(4-cyano-1,3-thiazol-2-yl)-5-methyl-1H-pyrrolo[2,3-b]pyridin-2-yl]-N-[(2S)-1,1,1-trifluoropropan-2-yl]pyridine-3-sulfonamide], the melting point is 259 to 261 °C. In data set [1], this molecule yielded a concentration for half-maximal inhibition (IC50) of 500 to 2000 nM.
The like results for `CC(C)(C)NS(=O)(=O)c1ccc(-c2c(C#N)c3cc(Cl)cnc3n2-c2nccs2)nc1` [Cpd 515, N-tert-butyl-6-[5-chloro-3-cyano-1-(1,3-thiazol-2-yl)-1H-pyrrolo[2,3-b]pyridin-2-yl]pyridine-3-sulfonamide] were, in that order, 216 to 218 °C and less than 500 nM.
The like results for `CC(C)(C)NS(=O)(=O)c1ccc(-c2c(C#N)c3cc(C(F)(F)F)cnc3n2-c2ccccc2)nc1` [Cpd 516, N-tert-butyl-6-[3-cyano-1-phenyl-5-(trifluoromethyl)-1H-pyrrolo[2,3-b]pyridin-2-yl]pyridine-3-sulfonamide] were, in that order, 201.2 to 202.4 °C and less than 500 nM.
The like results for `CC(C)(C)NS(=O)(=O)c1ccc(-c2c(C#N)c3cc(C(F)(F)F)cnc3n2-c2ccc(F)cc2)nc1` [Cpd 517, N-tert-butyl-6-[3-cyano-1-(4-fluorophenyl)-5-(trifluoromethyl)-1H-pyrrolo[2,3-b]pyridin-2-yl]pyridine-3-sulfonamide] were, in that order, 228.3 to 229.4 °C and 500 to 2000 nM.
Take `CC(C)(C)NS(=O)(=O)c1ccc(-c2c(C#N)c3cc(C(F)(F)F)cnc3n2-c2ccccn2)nc1` [Cpd 518, N-tert-butyl-6-[3-cyano-1-(pyridin-2-yl)-5-(trifluoromethyl)-1H-pyrrolo[2,3-b]pyridin-2-yl]pyridine-3-sulfonamide]: the melting point is 210.4 to 211.8 °C. The 50% inhibitory concentration (IC50) in data set [1] is less than 500 nM.
The like results for `CC(C)(C)NS(=O)(=O)c1ccc(-c2c(C#N)c3cc(F)cnc3n2-c2ccccc2)nc1` [Cpd 519, N-tert-butyl-6-(3-cyano-5-fluoro-1-phenyl-1H-pyrrolo[2,3-b]pyridin-2-yl)pyridine-3-sulfonamide] were, in that order, 239.4 to 241.5 °C and less than 500 nM.
As for `CC(C)(C)NS(=O)(=O)c1ccc(-c2c(C#N)c3cc(F)cnc3n2-c2ccc(F)cc2)nc1` [Cpd 520, N-tert-butyl-6-[3-cyano-5-fluoro-1-(4-fluorophenyl)-1H-pyrrolo[2,3-b]pyridin-2-yl]pyridine-3-sulfonamide], the melting point lay in the range of 259.1 to 260.7 °C. The molecule also yielded an IC50 in data set [1] of 2000 to 5000 nM.
In the same order, the values of `CC(C)(C)NS(=O)(=O)c1ccc(-c2c(C#N)c3cc(F)cnc3n2-c2cnccn2)nc1` [Cpd 521, N-tert-butyl-6-[3-cyano-5-fluoro-1-(pyrazin-2-yl)-1H-pyrrolo[2,3-b]pyridin-2-yl]pyridine-3-sulfonamide] are 245 to 247 °C and less than 500 nM.
The like results for `CC(C)(C)NS(=O)(=O)c1ccc(-c2c(C#N)c3cc(F)cnc3n2-c2ccccn2)nc1` [Cpd 522, N-tert-butyl-6-[3-cyano-5-fluoro-1-(pyridin-2-yl)-1H-pyrrolo[2,3-b]pyridin-2-yl]pyridine-3-sulfonamide] were, in that order, 202.2 to 204.3 °C and less than 500 nM.
With `CC(C)(C)NS(=O)(=O)c1ccc(-c2c(C(N)=O)c3cc(C(F)(F)F)cnc3n2-c2ccccc2)nc1` [Cpd 523, 2-[5-(tert-butylsulfamoyl)pyridin-2-yl]-1-phenyl-5-(trifluoromethyl)-1H-pyrrolo[2,3-b]pyridine-3-carboxamide], the melting point lay within 241.8 to 243 °C. Also, the IC50 in data set [1] was less than 500 nM.
`Cc1cnc2c(c1)c(C#N)c(-c1ccc(S(=O)(=O)NC(C)(C)C)cn1)n2-c1ccccc1` [Cpd 524, N-tert-butyl-6-(3-cyano-5-methyl-1-phenyl-1H-pyrrolo[2,3-b]pyridin-2-yl)pyridine-3-sulfonamide]: the melting point fell in the range of 228.6 to 229.3 °C. The half-maximal inhibitory concentration (IC50) in data set [1] is 500 to 2000 nM.

A word on the IC50: it is the point on the concentration scale where inhibition reaches its midpoint. A high value points to a need for much substance. By melting point is commonly meant the temperature, or range, at which the solid turns liquid.
